According to publication PMC6591397, “Functional Roles of Metabolic Intermediates in Regulating the Human Mitochondrial NAD(P)^+-Dependent Malic Enzyme” (Scientific Reports, 2019):
Like-named read-outs stand apart in the source and are kept apart here.

How the values were obtained:
[1] = target: human m-NAD(P)-ME WT and the exosite mutants; experiment: Size distribution analysis by analytical ultracentrifugation of WT and exosite mutants, protein only, with NAD+ or with ATP; type: binding; details: PBS
Experimental: Size distribution of the monomer-dimer-tetramer equilibrium of the enzyme was monitored using a Beckman Optima XL-A analytical ultracentrifuge instrument. A protein sample (380 µl) and reference buffer (400 µl) were loaded into a well-assembled cell with a double-sector centerpiece. Experiments were performed with an An-50Ti rotor at 42,000 rpm and 20 °C for 3 to 4 hours. The scans for sedimentation velocity data were monitored by the UV absorbance at 280 nm with a 480 s interval time and a 0.002 cm step size in continuous distribution mode. Using the SEDFIT 9.4c software[31]–[34], the size distribution of the enzyme was analyzed with a resolution corresponding to N = 200 to cover the range of sedimentation coefficient (S) values from approximately 0.1 to 20, a confidence level of p = 0.95, and a best-fit average anhydrous frictional ratio (f/f0). The dissociation constants of monomer-dimer-tetramer self-association model were globally analyzed by using the SEDPHAT software.
All sedimentation velocity data were globally fitted by a monomer-dimer-tetramer equilibrium model by the software program of SEDPHAT[34]. The parameters protein partial specific volume, solvent density and viscosity were calculated with the […] software program.
Figure 4 Continuous sedimentation coefficient distribution of human m-NAD(P)-ME WT and the exosite mutants. The enzyme concentrations were fixed at 1.6, 4.7, and 14.2 μM in PBS. […] (a) ME2_WT; (b) ME2_H154V; (c) ME2_K156A; (d) ME2_G192A; (e) ME2_R194N; (f) ME2_R197E; (g) ME2_R197D.
Figure 5 Continuous sedimentation coefficient distribution of human m-NAD(P)-ME WT and the exosite mutants. The enzyme concentrations were fixed at 1.6, 4.7, and 14.2 μM in PBS. […] (a) ME2_N482G; (b) ME2_N482A; (c) ME2_R542V; (d) ME2_Y552F; (e) ME2_R556Q; (f) ME2_R556V.

[2] = tested on: human m-NAD(P)-ME WT and exosite mutants; experiment: Enzyme kinetic assay (NADH production, absorbance at 340 nm) of WT and exosite mutants; type: biochemical; details: for K0.5,malate / Km / kcat: pH 7.4
Experimental: The ME reaction was measured with the production rate of NADH or NADPH via the absorbance at 340 nm. The reaction mixture in a saturated condition included 1 mM NAD(P)^+, 40 mM malate, and 10 mM MgCl2 in 50 mM Tris-HCl (pH 7.4). To determine the Km and kcat values, the concentration of one substrate was varied around its Km values while the concentrations of the other components were fixed at saturated concentrations.
The cooperativity of malate was determined with the following equation: ν=Vmax×[Malate]^h/K0.5h+[Malate]^h where ν is the initial velocity, Vmax is the maximum rate of the reaction, K0.5 is the substrate concentration at half-maximal velocity, and h is the Hill coefficient, which represents the degree of cooperativity.

[3] = protein only, read-out: Kd,12 monomer-dimer dissociation constant
[4] = protein only, read-out: Kd,24 dimer-tetramer dissociation constant
[5] = read-out: Kd,12(ATP), with 0.5 mM ATP
[6] = read-out: Kd,24(ATP), with 0.5 mM ATP
[7] = with 0.4 mM NAD+, read-out: Kd,12(NAD)
[8] = with 0.4 mM NAD+, read-out: Kd,24(NAD)

| Substance | Kd [1, 3] | Kd [1, 4] | Kd [1, 5] | Kd [1, 6] | Kd [1, 7] | Kd [1, 8] | h (Hill coefficient, malate cooperativity) ([2]; (+) with 5 mM fumarate) | K0.5,malate ([2]; (+) with 5 mM fumarate) | Km ([2]; (+) with 5 mM fumarate) | kcat ([2]; (+) with 5 mM fumarate) | h (Hill coefficient, malate cooperativity) ([2]; (−) without fumarate) | K0.5,malate ([2]; (−) without fumarate) | Km ([2]; (−) without fumarate) | kcat ([2]; (−) without fumarate) | kcat compared with the WT value [2] |
| --- | --- | --- | --- | --- | --- | --- | --- | --- | --- | --- | --- | --- | --- | --- | --- |
| G192A: exosite mutant of human m-NAD(P)-ME | 90 ± 2 nM | 300 ± 1 nM | 210 ± 10 nM | 400 ± 10 nM | 60 ± 2 nM | 180 ± 10 nM | 1.19 ± 0.10 | 2.65 ± 0.18 mM | 320 ± 30 µM | 230.0 ± 4.4 s⁻¹ | 1.30 ± 0.19 | 11.18 ± 2.08 mM | 570 ± 70 µM | 210.6 ± 7.7 s⁻¹ | – |
| H154V: exosite mutant of human m-NAD(P)-ME | 30 ± 2 nM | 460 ± 3 nM | 460 ± 10 nM | 4030 ± 40 nM | 70 ± 1 nM | 160 ± 1 nM | 1.08 ± 0.05 | 4.94 ± 0.26 mM | 530 ± 40 µM | 140.5 ± 2.5 s⁻¹ | 1.99 ± 0.10 | 15.31 ± 0.51 mM | 970 ± 60 µM | 134.6 ± 2.9 s⁻¹ | reduced to half of the WT value |
| K156A: exosite mutant of human m-NAD(P)-ME | 120 ± 4 nM | 320 ± 10 nM | 320 ± 10 nM | 800 ± 20 nM | 1360 ± 50 nM | 80 ± 3 nM | 1.01 ± 0.10 | 3.56 ± 0.40 mM | 320 ± 30 µM | 223.6 ± 5.1 s⁻¹ | 1.65 ± 0.04 | 10.12 ± 0.21 mM | 650 ± 70 µM | 209.9 ± 6.2 s⁻¹ | – |
| N482A: exosite mutant of human m-NAD(P)-ME | 290 ± 10 nM | 950 ± 30 nM | 1440 ± 40 nM | 350 ± 10 nM | 580 ± 30 nM | 970 ± 50 nM | 1.04 ± 0.14 | 1.02 ± 0.08 mM | 20 ± 10 µM | 215.6 ± 0.1 s⁻¹ | 1.87 ± 0.70 | 17.43 ± 5.10 mM | 700 ± 170 µM | 169.1 ± 0.6 s⁻¹ | – |
| N482G: exosite mutant of human m-NAD(P)-ME | 50 ± 10 nM | 180 ± 2 nM | 100 ± 3 nM | 60 ± 2 nM | 380 ± 2 nM | 40 ± 10 nM | 1.00 ± 0.09 | 4.23 ± 0.47 mM | 610 ± 40 µM | 309.7 ± 11.5 s⁻¹ | 1.59 ± 0.14 | 23.81 ± 2.70 mM | 1500 ± 140 µM | 263.2 ± 19.7 s⁻¹ | – |
| R194N: exosite mutant of human m-NAD(P)-ME | 310 ± 10 nM | 230 ± 10 nM | 80 ± 1 nM | 1440 ± 30 nM | 170 ± 10 nM | 40 ± 1 nM | 1.08 ± 0.08 | 5.11 ± 0.50 mM | 760 ± 70 µM | 227.4 ± 6.1 s⁻¹ | 2.18 ± 0.15 | 19.53 ± 0.91 mM | 1600 ± 160 µM | 204.4 ± 8.3 s⁻¹ | – |
| R197D: exosite mutant of human m-NAD(P)-ME | 800 ± 20 nM | 260 ± 10 nM | 690 ± 20 nM | 110 ± 3 nM | 60 ± 3 nM | 810 ± 40 nM | 1.06 ± 0.05 | 4.98 ± 0.28 mM | 130 ± 20 µM | 216.0 ± 0.1 s⁻¹ | 1.76 ± 0.23 | 17.82 ± 2.01 mM | 460 ± 50 µM | 206.8 ± 0.1 s⁻¹ | – |
